Measured values reported in patent US8067419B2, “Piperazines as antimalarial agents” (Actelion Pharmaceuticals Ltd., priority 2005, dated 2011).

tested on: P. falciparum K1; assay: Plasmodium falciparum in vitro assay ([3H] hypoxanthine incorporation); format: cell-based; conditions: 72 h, erythrocytic stages of P. falciparum K1 (strain resistant to chloroquine and pyrimethamine), human red cells, 48 h + 24 h with [3H] hypoxanthine
Protocol: In vitro activity against erythrocytic stages of P. falciparum is determined using a [^3H] hypoxanthine incorporation assay. One strain resistant to chloroquine and pyrimethamine (P. falciparum K1) is used in the assays, and all test compounds are compared for activity with the standard drugs chloroquine (sigma C6628) and artemisinin (sigma-36, 159-3). Compounds are diluted in DMSO to 1 mM and added to parasite cultures incubated in RPMI 1640 medium without hypoxanthine, supplemented with HEPES (5.94 g/L), NaHCO3 (2.1 g/L), neomycin (100 U/mL), Albumax (5 g/L) and washed human red cells at 2.5% haematocrit (0.3% parasitaemia). Seven serial doubling dilutions of each drug are prepared in 96-well microtitre plates and incubated in a humidifying atmosphere at 37° C.; 4% CO2, 3% O2, 93% N2.
After 48 hours, 50 μl of [^3H] hypoxanthine (0.5 μCi) is added to each well of a plate. The plates are incubated for a further 24 hours under the same conditions. The plates are then harvested with a Betaplate cell harvester (Wallac) and washed with distilled water. The dried filters are inserted into a plastic foil with 10 mL of scintillation fluid, and counted in a Betaplate liquid scintillation counter. IC50 values are calculated from sigmoidal inhibition curves using Microsoft Excel.

Row | Compound | IC50
1 | C[C@@H]1CC[C@H]2[C@@H](C)C(=O)O[C@@H]3O[C@@]4(C)CC[C@@H]1[C@]32OO4 [Artemisinin, artemisinin, reference compound] | 2 nM
2 | CCCCCc1ccc(CN(C(=O)/C=C/c2ccc(C(F)(F)F)cc2)[C@@H](Cc2ccccc2)C(=O)N2CCN(Cc3ccccc3)CC2)cc1 [Example 1, N—[(S)-1-benzyl-2-(4-benzyl-piperazin-1-yl)-2-oxo-ethyl]-N-(4-pentyl-benzyl)-3-(4-trifluoromethyl-phenyl)-acrylamide] | 3.8 nM
3 | CCCCCc1ccc(CN(C(=O)/C=C/c2cccc(C(F)(F)F)c2)[C@@H](Cc2ccccc2)C(=O)N2CCN(Cc3ccccc3)CC2)cc1 [Example 2, N—[(S)-1-benzyl-2-(4-benzyl-piperazin-1-yl)-2-oxo-ethyl]-N-(4-pentyl-benzyl)-3-(3-trifluoromethyl-phenyl)-acrylamide] | 70 nM
4 | CCCCCc1ccc(CN(C(=O)/C=C/c2ccccc2C(F)(F)F)[C@@H](Cc2ccccc2)C(=O)N2CCN(Cc3ccccc3)CC2)cc1 [Example 3, N—[(S)-1-benzyl-2-(4-benzyl-piperazin-1-yl)-2-oxo-ethyl]-N-(4-pentyl-benzyl)-3-(2-trifluoromethyl-phenyl)-acrylamide] | 375 nM
5 | CCCCCc1ccc(CN(C(=O)/C=C/c2ccc(OC)cc2)[C@@H](Cc2ccccc2)C(=O)N2CCN(Cc3ccccc3)CC2)cc1 [Example 4, N—[(S)-1-benzyl-2-(4-benzyl-piperazin-1-yl)-2-oxo-ethyl]-3-(4-methoxy-phenyl)-N-(4-pentyl-benzyl)-acrylamide] | 7 nM
6 | CCCCCc1ccc(CN(C(=O)/C=C/c2cccc(OC)c2)[C@@H](Cc2ccccc2)C(=O)N2CCN(Cc3ccccc3)CC2)cc1 [Example 5, N—[(S)-1-benzyl-2-(4-benzyl-piperazin-1-yl)-2-oxo-ethyl]-3-(3-methoxy-phenyl)-N-(4-pentyl-benzyl)-acrylamide] | 19 nM
7 | CCCCCc1ccc(CN(C(=O)CCc2cc(C(F)(F)F)cc(C(F)(F)F)c2)[C@@H](Cc2ccccc2)C(=O)N2CCN(Cc3ccccc3)CC2)cc1 [Example 6, N—[(S)-1-benzyl-2-(4-benzyl-piperazin-1-yl)-2-oxo-ethyl]-3-(3,5-bis-trifluoromethyl-phenyl)-N-(4-pentyl-benzyl)-propionamide] | 588 nM
8 | CCCCCc1ccc(CN(C(=O)/C=C/c2ccc(C(F)(F)F)cc2)[C@@H](Cc2ccccc2)C(=O)N2CCN(Cc3ccc(C(F)(F)F)nc3)CC2)cc1 [Example 15] | 11 nM
9 | CCCCOc1ccc(CN(C(=O)/C=C/c2ccc(C(F)(F)F)cc2)[C@@H](Cc2ccccc2)C(=O)N2CCN(Cc3ccccc3)CC2)cc1 [Example 29, N—[(S)-1-benzyl-2-(4-benzyl-piperazin-1-yl)-2-oxo-ethyl]-N-(4-butoxy-benzyl)-3-(4-trifluoromethyl-phenyl)-acrylamide] | 7.5 nM
10 | CCCCc1ccc(CN(C(=O)/C=C/c2ccc(C(F)(F)F)cc2)[C@@H](Cc2ccccc2)C(=O)N2CCN(Cc3ccccc3)CC2)cc1 [Example 33] | 6.9 nM

Results, then the compound that gave them:

Row | IC50 | Compound
11 | 18 nM | CC(C)Cc1ccc(CN(C(=O)/C=C/c2ccc(C(F)(F)F)cc2)[C@@H](Cc2ccccc2)C(=O)N2CCN(Cc3ccccc3)CC2)cc1 [Example 37]
12 | 11 nM | CCCCOc1ccc(CN(C(=O)/C=C/c2ccc(OC)cc2)[C@@H](Cc2ccccc2)C(=O)N2CCN(Cc3ccccc3)CC2)cc1 [Example 38]
13 | 8.3 nM | COc1ccc(/C=C/C(=O)N(Cc2ccc(OCCCN(C)C)cc2)[C@@H](Cc2ccccc2)C(=O)N2CCN(Cc3ccccc3)CC2)cc1 [Example 43]
14 | 4.8 nM | O=C([C@H](Cc1ccccc1)N(Cc1ccc(-c2ccncc2)nc1)C(=O)/C=C/c1ccc(C(F)(F)F)cc1)N1CCN(Cc2ccccc2)CC1 [Example 125, N—[(S)-1-benzyl-2-(4-benzyl-piperazin-1-yl)-2-oxo-ethyl]-N-[2,4′]bipyridinyl-5-ylmethyl-3-(4-trifluoromethyl-phenyl)-acrylamide]
15 | 9.5 nM | O=C([C@H](Cc1ccccc1)N(Cc1ccc(N2CCCC2=O)nc1)C(=O)/C=C/c1ccc(C(F)(F)F)cc1)N1CCN(Cc2ccccc2)CC1 [Example 129, N—[(S)-1-benzyl-2-(4-benzyl-piperazin-1-yl)-2-oxo-ethyl]-N-[6-(2-oxo-pyrrolidin-1-yl)-pyridin-3-ylmethyl]-3-(4-trifluoromethyl-phenyl)-acrylamide]
